Measured values as given in a compilation of properties of binary mixtures (doi:10.1016/j.molliq.2019.03.144).

Assay: xn = mol fraction of the nth substance listed
Conditions: 96.7 kPa

c1ccncc1 + CC(=O)[O-].CC[n+]1ccn(C)c1
x2 = 0
Conditions	viscosity [mPa·s]
303.15 K	0.843
313.15 K	0.741
323.15 K	0.658
333.15 K	0.59
343.15 K	0.533
353.15 K	0.485

CC(=O)[O-].CC[n+]1ccn(C)c1 + c1ccncc1
viscosity [mPa·s]
Conditions	x1 = 0.166	x1 = 0.318	x1 = 0.411	x1 = 0.52	x1 = 0.649	x1 = 0.806	x1 = 0.898	x1 = 1
303.15 K	2.54	5.96	–	15.7	27.5	51	72.6	103.2
308.15 K	–	5.29	8.29	–	22.7	–	–	76.1
313.15 K	2.12	4.72	7.27	11.55	19	33.1	44.7	59.6
318.15 K	1.95	4.22	6.42	9.99	16.09	27	36	47.4
323.15 K	1.797	3.82	5.71	–	13.77	22.7	–	38.4
328.15 K	1.671	–	5.11	7.68	11.88	–	24.5	31.5
333.15 K	1.552	–	4.6	6.82	–	16.33	20.6	–
338.15 K	1.453	–	4.16	6.09	9.11	14.04	17.63	22
343.15 K	–	2.65	–	5.47	–	12.35	15.11	–
348.15 K	1.278	2.45	3.46	4.96	7.18	10.77	13.26	16.25
353.15 K	1.203	–	3.18	4.48	6.45	9.52	11.59	14.03
